According to US6784167B2, “17-beta-hydroxysteroid dehydrogenase-II inhibitors” (Bayer Pharmaceuticals Corporation, priority 2000, dated 2004):

Target: T1, 17-Beta HSD II Enzyme (Homo sapiens, UniProt P37059)
T1 construct: made in house; host or cells: insect cells (baculovirus)
T1 sequence (P37059 1-387): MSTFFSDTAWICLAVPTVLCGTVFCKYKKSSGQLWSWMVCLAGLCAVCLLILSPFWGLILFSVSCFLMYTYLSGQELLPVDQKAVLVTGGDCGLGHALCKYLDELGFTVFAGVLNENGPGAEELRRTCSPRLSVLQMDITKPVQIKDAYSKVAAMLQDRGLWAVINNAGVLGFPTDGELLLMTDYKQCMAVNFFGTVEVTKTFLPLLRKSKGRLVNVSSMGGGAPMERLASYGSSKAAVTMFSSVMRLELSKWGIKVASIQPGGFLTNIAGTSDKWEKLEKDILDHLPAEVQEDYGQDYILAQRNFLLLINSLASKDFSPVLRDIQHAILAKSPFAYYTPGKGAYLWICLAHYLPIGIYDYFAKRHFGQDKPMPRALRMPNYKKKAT
Experiment: Primary assay: inhibition of 17-Beta HSD II enzyme (estradiol/NAD, PMS:MTS colorimetric readout at 490 nm)
Assay type: biochemical
Details: Table 7; baculovirus-expressed recombinant HSD II, estradiol substrate
Protocol: HSD II protein purification: The method for purification of baculovirus-expressed HSD II was standardized as follows. The insect cell pellet containing recombinant HSD II was lysed in 2.5 volumes of lysis buffer (40 mM Tris, pH 7.5, 1 mM EDTA, 2 mM DTT, 10 uM NAD) containing 500 uM AEBSF, 10 ug/ml aprotinin, 1 uM pepstatin A, and 100 uM leupeptin. The pellet was nutated for 30 min in this buffer. Subsequently, the pellet was homogenized with 15 strokes using a glass and teflon potter. The volume was doubled with a 2× sucrose/NaCl solution (500 mM sucrose, 300 mM NaCl in lysis buffer). After centrifugation at 10,000×g for 30 min, the supernatant was decanted and stored at −20° C. The pellet was resuspended in 2.5 volumes of lysis buffer containing 250 mM sucrose and 150 mM NaCl. Homogenization was repeated (15 strokes) and the suspension was centrifuged again and the decanted supernatant was stored at −20° C. The pellet was resuspended with 2 times the original pellet volume in lysis buffer containing 150 mM NaCl and 1% Triton X-100. The suspension was nutated for 20 min and then homogenized with 5 strokes. Subsequently, the suspension was centrifuged at 30,000×g for 1 h and supernatant was decanted and poured into a chromatographic column. Sephadex G-25 (fine) was added in small amounts, allowing approximately 15 min after each addition for complete swelling. Sephadex addition was continued until all liquid was absorbed. The protein was eluted with 1 void volume of lysis buffer and eluate monitored at 280 nm optical density. The chromatographic procedure was repeated and an equal volume of glycerol was added to the final eluate.
Primary assay: After titration, the HSD II prep, generated with the standard protocol, was diluted to the appropriate concentration (generally 1/15 dilution). 55 μl of assay buffer (50 mM Hepes, pH 8.0) was added to all wells of a 96 well plate. 5 μl of 5% DMSO were added to wells A1-C1, A2-C2, F1-H1, and F2-H2. A 10 μl aliquot of a 10 mM solution in DMSO of each compound was diluted in 190 μl of assay buffer. The plate with these compound dilutions was then mixed for 15 min on a shaker and a 5 μl aliquot from each well was added to the […]. This was followed by 10 μl of HSD II enzyme ( 1/15 dilution)/estradiol mix in assay buffer containing 1% Triton X-100. The estradiol […] from a 20 mM estradiol DMSO stock solution, which was diluted 1/20 (50 μl/ml) in 50 mM Hepes buffer containing 1% Triton X-100. All wells, except F1-H1 and F2-H2, also received 10 μl of 25 mg/ml NAD (SIGMA) in 100 mM Hepes, pH 9. The blank wells F1-H1 and F2-H2 received 10 μl of NAD buffer. 20 μl of PMS:MTS solution (100 μl PMS into 1800 μl MTS, Promega) was added to all wells. The plate was covered with aluminum foil and incubated at room temperature for 1.5 h. The plate was analyzed at 490 nm on a Hewlett Pachard 8453 spectrophotometer and results were calculated.

Row | IC50 [µM] | SMILES
1 | < 0.5 | CN1C(=O)C[C@H](c2ccccc2)[C@@H]1[C@H](O)c1ccc(-c2cccnc2)s1 (racemic) [Example 79]
2 | < 0.5 | CN1C(=O)C[C@H](c2ccccc2)[C@@H]1[C@H](O)C#Cc1ccccc1 (relative stereo) [Example 8, (±)-5-((1R*)-1-hydroxy-3-phenylprop-2-ynyl)(4R*,5R*)-1-methyl-4-phenylpyrrolidin-2-one]
3 | < 0.5 | CSC(c1cc2ccccc2[nH]1)[C@H]1[C@@H](c2ccccc2)CC(=O)N1C (relative stereo) [Example 10]
4 | < 0.5 | CN1C(=O)C[C@H](c2ccc(O)cc2)[C@@H]1[C@H](O)c1ccc(-c2ccccc2)s1 (relative stereo) [Example 20, (±)-(4R*,5R*)-5-[(1S*)-hydroxy(5-phenyl(2-thienyl))methyl]-1-methyl-4-[4-hydroxyphenyl]pyrrolidin-2-one]
5 | < 0.5 | CN1C(=O)C[C@H](c2ccccc2)[C@@H]1[C@@H](O)c1ccc(-c2ccccc2)s1 [Example 11, (4R,5R)-5-[(1R)-hydroxy(5-phenyl(2-thienyl))methyl]-1-methyl-4-phenylpyrrolidin-2-one]

Same assay, conditions: Table 7; baculovirus-expressed recombinant HSD II, estradiol substrate; read-out: IC50 values ≧2 μM and <10 μM

Row | IC50 [µM] | SMILES
6 | 2 to 10 | CN1C(=S)C[C@H](c2ccccc2)[C@@H]1[C@H](O)c1cccs1 (relative stereo) [Example 1, (±)-(4R*,5R*)-5-((1S*)-hydroxy-2-thienylmethyl)-1-methyl-4-phenylpyrrolidin-2-thione]
7 | 2 to 10 | CN1C(=O)C[C@H](c2ccccc2)[C@@H]1COc1cccc(Cl)c1 (relative stereo) [Example 2, (±)-(4R*,5R*)-5-[(3-chlorophenoxy)methyl]-1-methyl-4-phenylpyrrolidin-2-one]
8 | 2 to 10 | CN(C)c1ccc([C@H]2CC(=O)N(C)[C@H]2[C@H](O)c2ccc(-c3ccccc3)s2)cc1 (relative stereo) [Example 19, (±)-(4R*,5R*)-5-[(1S*)-hydroxy(5-phenyl(2-thienyl))methyl]-1-methyl-4-[4-(dimethylamino)phenyl]pyrrolidin-2-one]
9 | 2 to 10 | CN1C(=O)C[C@H](c2ccc(CO)cc2)[C@@H]1[C@H](O)c1ccc(-c2ccccc2)s1 (relative stereo) [Example 21, (±)-(4R*,5R*)-5-[(1S*)hydroxy(5-phenyl(2-thienyl))methyl]-4-[4-(hydroxymethyl)phenyl]-1-methylpyrrolidin-2-one]
10 | 2 to 10 | CN1C(=O)C[C@H](c2ccc(-c3ccc(F)cc3)cc2)[C@@H]1[C@H](O)c1ccc(-c2ccccc2)s1 (relative stereo) [Example 22, (±)-(4R*,5R*)-5-[(1S*)hydroxy(5-phenyl(2-thienyl))-methyl]-4-[4-(4-fluorophenyl)phenyl]-1-methylpyrrolidin-2-one]
11 | 2 to 10 | CN1C(=O)C[C@H](c2ccccc2)[C@@H]1[C@H](O)c1ccc(-c2cccc(NC(=O)Nc3ccc(F)cc3)c2)s1 (relative stereo) [Example 25, (±)-(4R*,5R*)-5-{(1S*)[5-(3-{[(4-fluorophenyl)amino]carbonylamino}phenyl)(2-thienyl)]hydroxymethyl}-1-methyl-4-phenylpyrrolidin-2-one]

System: not given
Experiment: not given
Details: not given

Row | melting point [°C] | SMILES
12 | 180 to 182 | COc1ccc2oc(C(O)C3C(c4ccccc4)CC(=O)N3C)cc2c1 (stereo not drawn) [Example 113]
13 | 168 | CN1C(=O)CC(c2ccccc2)C1C(O)c1ccc(-c2ccc(F)cc2)o1 (stereo not drawn) [Example 114]
14 | 98 | CN1C(=O)CC(c2ccccc2)C1C(O)c1ccc(-c2cccc(N)c2)o1 (stereo not drawn) [Example 119]
15 | 210 to 211 | CN1C(=O)CC(c2ccccc2)C1C(O)C#Cc1cccc(O)c1 (stereo not drawn) [Example 132]
16 | 136 | CO[C@H](c1cccc(-c2ccccc2)c1)[C@H]1[C@@H](c2ccccc2)CC(=O)N1C [Example 143]
17 | 121 to 123 | CN1C(=O)C[C@H](c2ccccc2)[C@@H]1[C@H](F)c1ccc(-c2ccc(F)cc2)s1 [Example 144]
18 | 180 to 182 | CN1C(=O)C[C@H](c2ccccc2F)[C@@H]1[C@H](O)c1ccc(-c2cccnc2)s1.Cl [Example 152]
